Reference: ChEMBL document CHEMBL5725671, “Heterocyclic compounds useful as PDK1 inhibitors” (2018)

Each compound was assayed against T1, 3-phosphoinositide-dependent protein kinase 1 (Homo sapiens, UniProt O15530) (assay: PDK1 kinase assay: PDK1 (amino acids 51-359) and AKT2 (amino acids 140-467 fused to PIFtide, amino acids […]) were expressed as N-terminally tagged GST fusion proteins in insect cells and purified to homogeneity. Enzyme activity was determined in a coupled PDK1/AKT/FAM-crosstide assay and phosphorylation of FAM-crosstide was determined by standard IMAP protocol (Molecular Devices). For inhibition studies, compounds were titrated 4-fold in DMSO and diluted 40-fold into assay buffer (10 mM Tris HCl pH7.2; 10 mM MgCl2; 0.01% Triton X-100; 1 mM DTT) containing PDK1, AKT2, and FAM-crosstide (final concentrations: 0.75 nM PDK1, 10 nM unphosphorylated AKT2, and 100 nM crosstide substrate). The kinase reaction was initiated by adding ATP to a final concentration of 40 μM of PDK1 and incubated at 25° C. for 30 min. To detect assay product, the kinase reaction was combined with Progressive Binding Solution (1:600 Progressive Binding Reagent, 50% Buffer A, 50% Buffer B, Molecular Devices) in a 1:3 ratio. The mixture was incubated for 2 hours at 25° C. and the plate was scanned on an Analyst AD with excitation at 485 nm and emission at 530 nm. The fluorescence polarization value P is defined by the equation below. The value mP is generated by multiplying the P value for each reaction well by a factor of 1000. The value ΔmP for each well is the mP value for that well minus the mP value for the average negative control. P=(Fpar−Fperp)/(Fpar+Fperp) Eq.:Where par is fluorescence intensity parallel to the excitation plane; and perp is fluorescence intensity perpendicular to the excitation plane. ΔmP values were plotted as a function of compound concentration and the data were analyzed with a 4-parameter fit using GraphPad Prism software.).
T1 sequence (O15530 whole entry): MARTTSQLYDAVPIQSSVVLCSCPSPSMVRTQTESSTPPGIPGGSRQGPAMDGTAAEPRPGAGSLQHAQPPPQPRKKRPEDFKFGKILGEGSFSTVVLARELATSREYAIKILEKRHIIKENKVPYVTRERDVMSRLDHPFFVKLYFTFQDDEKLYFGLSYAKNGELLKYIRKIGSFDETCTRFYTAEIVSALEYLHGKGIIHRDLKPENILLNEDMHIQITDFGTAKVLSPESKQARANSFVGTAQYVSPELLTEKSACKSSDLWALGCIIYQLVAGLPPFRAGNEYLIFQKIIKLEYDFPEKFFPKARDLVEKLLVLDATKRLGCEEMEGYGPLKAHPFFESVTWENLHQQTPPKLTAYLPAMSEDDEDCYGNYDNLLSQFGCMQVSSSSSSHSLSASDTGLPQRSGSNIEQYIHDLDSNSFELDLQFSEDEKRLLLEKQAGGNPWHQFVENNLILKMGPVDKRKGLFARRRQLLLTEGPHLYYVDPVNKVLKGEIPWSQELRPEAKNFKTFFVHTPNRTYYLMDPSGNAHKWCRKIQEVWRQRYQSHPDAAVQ
Format: biochemical

IC50 [nM]	SMILES
> 5000	Nc1ncnc2ccc(-c3ccc(CNc4ncc(Br)cc4S(=O)(=O)NCc4ccc(F)c(F)c4)s3)cc12
< 100	N#Cc1cc(F)ccc1NC(=O)c1cc(C(F)(F)F)cnc1NCc1ccc(-c2cnc3[nH]nc(N)c3c2)cc1
> 5000	C[C@H](NC(=O)c1cccnc1NCc1ccc(-c2cc3c(cn2)ncn3C)s1)c1ccc(F)cc1
< 100	C[C@H](NC(=O)c1cc(C#N)cnc1NCc1ccc(-c2cnc3[nH]c(=O)n(C)c3c2)cc1)c1ccc(F)cc1
> 5000	Cc1nc(N)cnc1-c1ccc(CNc2ncc(C#N)cc2C(=O)N[C@@H](C)c2ccc(F)cc2)cc1
> 5000	COCCNC(=O)c1cccnc1NCc1ccc(-c2ccc3ncnc(N)c3c2)s1
< 100	C[C@H](NC(=O)c1cc(C#N)cnc1NCC#Cc1ccc2nc(N)ncc2c1)c1ccc(F)cc1
< 100	C[C@H](NC(=O)c1nc(C#N)cnc1NCc1ccc(-c2cnc(N)c(CO)n2)cc1)c1ccc(F)c(F)c1
< 100	C[C@H](NC(=O)c1cc(C#N)cnc1N[C@H](C)c1ccc(-c2cnc3[nH]nc(N)c3c2)nc1)c1ccc(F)cc1
< 100	N#Cc1cnc(NCc2ccc(-c3cnc4[nH]ncc4c3)cc2)c(C(=O)NCc2ccc(F)c(F)c2)c1
< 100	Nc1ncc(-c2ccc(CNc3ncc(C(F)(F)F)cc3C(=O)Nc3ccc(F)cc3)cc2)nc1CO
< 100	CCc1cnc(NCc2ccc(-c3ccc4ncnc(N)c4c3)s2)c(C(=O)NCc2ccc(F)c(F)c2)c1
< 100	C[C@H](NC(=O)c1cc(C#N)cnc1NCc1ccc(-c2cnc3[nH]nc(N)c3c2)cc1F)c1ccc(F)cc1
< 100	C[C@H](NC(=O)c1nc(C#N)cnc1NCC#Cc1ccc2nc(N)ncc2c1)c1ccc(F)c(F)c1
< 100	C[C@H](NC(=O)c1nc(C(F)(F)F)cnc1NCc1ccc(-c2cnc3[nH]nc(N)c3c2)cc1)c1ccc(F)c(F)c1
< 100	C[C@H](NC(=O)c1cc(C#N)cnc1NCc1ccc(-c2cnc3[nH]c(=O)[nH]c3c2)c(F)c1)c1ccc(F)cc1
< 100	C[C@H](NC(=O)c1cccnc1NCc1ccc(-c2ccc3ncnc(NCCO)c3c2)s1)c1ccc(F)cc1
< 100	C[C@H](NC(=O)c1nc(C(F)(F)F)cnc1N[C@H](C)c1ccc(-c2cnc3[nH]nc(N)c3c2)cc1)c1ccc(F)c(F)c1
< 100	Nc1ncnc2ccc(-c3ccc(CNc4ncccc4C(=O)NCc4cncc(F)c4)s3)cc12
> 5000	Cc1ccc(NC(=O)c2cccnc2NCc2ccc(-c3ccc4ncnc(N)c4c3)s2)cc1F
< 100	C[C@H](NC(=O)c1nc(C#N)cnc1N[C@H](C)c1ccc(-c2cnc3[nH]nc(N)c3c2)nc1)c1ccc(F)c(F)c1
< 100	C[C@H](NC(=O)c1cc(C#N)cnc1NCc1ccc(-c2cnc3[nH]nc(N)c3c2)cc1Cl)c1ccc(F)cc1
